From ChEMBL document CHEMBL3817828, “Design, synthesis and evaluation of novel tetrahydrothieno[3,2-c]pyridine derivatives as potent smoothened antagonists” (Medchemcomm, 2016) come the findings set out here.

The nature of test [1]: Inhibition of Hh receptor (unknown origin) expressed in SAG-stimulated mouse NIH3T3 cells incubated for 24 hrs by Gli-luciferase reporter gene assay. In kind it is cell-based. The conditions noted are these: NIH3T3, 24 h.
Test [2] deals with Protein smoothened (Homo sapiens, UniProt Q99835). Briefly: Displacement of BODIPY-cyclopamine from human Smo expressed in HEK293 cells incubated for 3 hrs by fluorescence competitive displacement assay. In kind it is cell-based.
Protein smoothened, sequence (Q99835 whole entry): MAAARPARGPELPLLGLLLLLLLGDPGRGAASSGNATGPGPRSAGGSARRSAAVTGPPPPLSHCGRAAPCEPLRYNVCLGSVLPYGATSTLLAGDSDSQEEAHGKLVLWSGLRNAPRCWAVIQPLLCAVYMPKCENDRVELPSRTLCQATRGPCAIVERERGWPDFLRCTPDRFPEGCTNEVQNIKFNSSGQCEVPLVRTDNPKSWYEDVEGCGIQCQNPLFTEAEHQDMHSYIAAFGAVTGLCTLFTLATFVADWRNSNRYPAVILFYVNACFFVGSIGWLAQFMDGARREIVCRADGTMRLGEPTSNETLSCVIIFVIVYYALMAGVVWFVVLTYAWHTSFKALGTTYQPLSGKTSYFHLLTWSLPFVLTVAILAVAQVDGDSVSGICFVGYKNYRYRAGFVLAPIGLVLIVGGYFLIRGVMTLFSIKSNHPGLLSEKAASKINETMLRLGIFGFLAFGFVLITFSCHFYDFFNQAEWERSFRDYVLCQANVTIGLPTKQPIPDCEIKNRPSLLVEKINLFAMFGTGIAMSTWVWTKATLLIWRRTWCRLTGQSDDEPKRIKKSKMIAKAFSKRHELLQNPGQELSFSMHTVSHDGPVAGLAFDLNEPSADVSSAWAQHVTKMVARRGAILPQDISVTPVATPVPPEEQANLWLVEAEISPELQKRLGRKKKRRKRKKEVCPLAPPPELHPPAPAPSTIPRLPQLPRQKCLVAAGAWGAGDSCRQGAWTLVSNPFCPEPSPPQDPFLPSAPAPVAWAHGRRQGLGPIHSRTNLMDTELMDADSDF

In turn, `COc1ccccc1N1CCN(C(=O)c2cc3c(s2)CCN(c2cccc(-c4nc5ccccc5n4C)c2)C3)CC1` had a half-inhibitory concentration (IC50) in test [1] of 2350 nM.
`Cn1c(-c2cccc(N3CCc4sc(C(=O)N5CCN(C(=O)OC(C)(C)C)CC5)cc4C3)c2)nc2ccccc21` returned an IC50 in test [1] of 2080 nM.
With `Cn1c(-c2cc(N3CCc4sc(C(=O)N5CCN(c6ccc(Cl)c(Cl)c6)CC5)cc4C3)ccc2Cl)nc2ccccc21`, the IC50 is 160 nM in test [1] and 213 nM in test [2].
As for `CN1CCN(C(=O)c2cc3c(s2)CCN(c2cccc(-c4nc5ccccc5n4C)c2)C3)CC1`, the IC50 was determined as 170 nM in test [1] and 326 nM in test [2].
Turning to `Cn1c(-c2cccc(N3CCc4sc(C(=O)N5CCOCC5)cc4C3)c2)nc2ccccc21`, the IC50 in test [1] was 210 nM; in test [2], 294 nM.
On the same counts, the results for `Cn1c(-c2cc(N3CCc4sc(C(=O)N5CCN(c6ncccn6)CC5)cc4C3)ccc2Cl)nc2ccccc21` are 90 nM and 92 nM.
For the compound `Cn1c(-c2cccc(N3CCc4sc(C(=O)Nc5cccnc5)cc4C3)c2)nc2ccccc21`, the IC50 in test [1] came to 200 nM; in test [2], 261 nM.
As for `Cn1c(-c2cccc(N3CCc4sc(C(=O)Nc5ccccc5)cc4C3)c2)nc2ccccc21`, in test [1], the IC50 was 850 nM.
For the compound `Cn1c(-c2cccc(N3CCc4sc(C(=O)N5CCN(c6ccc(Cl)c(Cl)c6)CC5)cc4C3)c2)nc2ccccc21`, the IC50 in test [1] worked out at 270 nM; in test [2], 456 nM.
On to `Cn1c(-c2cccc(N3CCc4sc(C(=O)Nc5ccc(Br)cc5)cc4C3)c2)nc2ccccc21`, for which, in test [1], the IC50 turned out to be 450 nM.
Regarding `Cc1ccc(NC(=O)c2cc3c(s2)CCN(c2cccc(-c4nc5ccccc5n4C)c2)C3)cc1`, the IC50 in test [1] was determined as 1630 nM.
On the same count and under the same terms, as for `CC1CCCCN1C(=O)c1cc2c(s1)CCN(c1cccc(-c3nc4ccccc4n3C)c1)C2` (centres undefined), the figure is 330 nM.
Regarding `Cn1c(-c2cc(N3CCc4sc(C(=O)N5CCOCC5)cc4C3)ccc2Cl)nc2ccccc21`, the IC50 was found to be 60 nM in test [1] and 18 nM in test [2].
`Cn1c(-c2cccc(N3CCc4sc(C(=O)N5CCN(c6ccccc6)CC5)cc4C3)c2)nc2ccccc21` had an IC50 in test [1] of 1320 nM.
As for `Cn1c(-c2cc(N3CCc4sc(C(=O)N5CCCC5)cc4C3)ccc2Cl)nc2ccccc21`, the IC50 stood at 220 nM in test [1] and 315 nM in test [2].
With `Cn1c(-c2cccc(N3CCc4sc(C(=O)N5CCN(c6ccc(F)cc6)CC5)cc4C3)c2)nc2ccccc21`, the IC50 in test [1] was found to be 320 nM.
Same read-out and setting: with `CC(C)CNC(=O)c1cc2c(s1)CCN(c1cccc(-c3nc4ccccc4n3C)c1)C2` the figure was 1720 nM.
In test [1], `Cn1c(-c2cccc(N3CCc4sc(C(=O)Nc5ccc(F)c(F)c5)cc4C3)c2)nc2ccccc21` came in with an IC50 of 270 nM.
Compound `Cn1c(-c2cccc(N3CCc4sc(C(=O)N5CCN(c6cccc(C(F)(F)F)c6)CC5)cc4C3)c2)nc2ccccc21` returned an IC50 in test [1] of 1760 nM.
As to `Cn1c(-c2cccc(N3CCc4sc(C(=O)N5CCC(O)CC5)cc4C3)c2)nc2ccccc21`, the figures for the IC50 in test [1] and in test [2] were 280 nM and 431 nM, respectively.
For the compound `Cc1ccc(NC(=O)c2cc3c(s2)CCN(c2cccc(-c4nc5ccccc5n4C)c2)C3)cc1Cl`, the IC50 in test [1] was 310 nM.
`Cn1c(-c2cccc(N3CCc4sc(C(=O)Nc5ccccc5F)cc4C3)c2)nc2ccccc21`: the IC50 in test [1] was 360 nM.
For `Cn1c(-c2cccc(N3CCc4sc(C(=O)N5CCN(C(=O)c6ccco6)CC5)cc4C3)c2)nc2ccccc21`, in test [1], the IC50 came out at 490 nM.
As for `Cn1c(-c2cccc(N3CCc4sc(C(=O)N5CCN(c6ncccn6)CC5)cc4C3)c2)nc2ccccc21`, the IC50 in test [1] turned out to be 150 nM; in test [2], 237 nM.
With `Cn1c(-c2cccc(N3CCc4sc(C(=O)N5CCN(c6ccccn6)CC5)cc4C3)c2)nc2ccccc21`, the IC50 in test [1] was 340 nM.
For the compound `COc1ccc(N2CCN(C(=O)c3cc4c(s3)CCN(c3cccc(-c5nc6ccccc6n5C)c3)C4)CC2)cc1`, the IC50 in test [1] turned out to be 1260 nM.
Same read-out and setting: with `CCN(CC)C(=O)c1cc2c(s1)CCN(c1cccc(-c3nc4ccccc4n3C)c1)C2` the figure was 1340 nM.
Turning to `Cn1c(-c2cccc(N3CCc4sc(C(=O)N5CCN(S(C)(=O)=O)CC5)cc4C3)c2)nc2ccccc21`, the IC50 in test [1] is 220 nM; in test [2], 373 nM.
In test [1], `Cn1c(-c2cccc(N3CCc4sc(C(=O)Nc5ccc(F)c(Br)c5)cc4C3)c2)nc2ccccc21` showed an IC50 of 350 nM.
Still for that read-out and setting: with `CNC(=O)c1cc2c(s1)CCN(c1cccc(-c3nc4ccccc4n3C)c1)C2` the figure was 1410 nM.
Consider `CN1CCN(C(=O)c2cc3c(s2)CCN(c2ccc(Cl)c(-c4nc5ccccc5n4C)c2)C3)CC1`, for which the IC50 in test [1] came out at 130 nM; in test [2] it was 135 nM.
The like results for `Cn1c(-c2cccc(N3CCc4sc(C(=O)N5CCCC5)cc4C3)c2)nc2ccccc21` were, in that order, 260 nM and 352 nM.
In test [1], `CC(=O)N1CCN(C(=O)c2cc3c(s2)CCN(c2cccc(-c4nc5ccccc5n4C)c2)C3)CC1` gave an IC50 of 370 nM.
Regarding `Cn1c(-c2cc(N3CCc4sc(C(=O)N5CCC(O)CC5)cc4C3)ccc2Cl)nc2ccccc21`, the IC50 is 190 nM in test [1] and 192 nM in test [2].
Regarding `CCN1CCN(C(=O)c2cc3c(s2)CCN(c2cccc(-c4nc5ccccc5n4C)c2)C3)CC1`, in test [1], inhibition was half-maximal at 350 nM (IC50).
As for `Cn1c(-c2cccc(N3CCc4sc(C(=O)N5CCN(C(c6ccccc6)c6ccccc6)CC5)cc4C3)c2)nc2ccccc21`, the IC50 in test [1] is greater than 15000 nM.
Consider `Cn1c(-c2cccc(N3CCc4sc(C(=O)N5CCN(c6cccc(Cl)c6)CC5)cc4C3)c2)nc2ccccc21`, for which half-maximal inhibition in test [1] (IC50) required 380 nM.
In test [1], `COc1cccc(NC(=O)c2cc3c(s2)CCN(c2cccc(-c4nc5ccccc5n4C)c2)C3)c1` returned an IC50 of 660 nM.
Consider `Cn1c(-c2cc(N3CCc4sc(C(=O)Nc5cccnc5)cc4C3)ccc2Cl)nc2ccccc21`, for which the IC50 in test [1] is 140 nM; in test [2] it was 56 nM.
In test [1], `CN(C)C(=O)c1cc2c(s1)CCN(c1cccc(-c3nc4ccccc4n3C)c1)C2` showed an IC50 of 1560 nM.
`Cn1c(-c2cccc(N3CCc4sc(C(=O)N5CCN(c6ccccc6F)CC5)cc4C3)c2)nc2ccccc21` returned an IC50 in test [1] of 760 nM.
Turning to `Cn1c(-c2cc(N3CCc4sc(C(=O)N5CCN(S(C)(=O)=O)CC5)cc4C3)ccc2Cl)nc2ccccc21`, the IC50 in test [1] turned out to be 240 nM; in test [2], 217 nM.
Consider `CS(=O)(=O)c1ccc(C(=O)Nc2ccc(Cl)c(-c3ccccn3)c2)c(Cl)c1` [VISMODEGIB], for which, in test [1], the IC50 is 25 nM.
